# From patent publication US20220354844A1, “METHODS OF TREATING METABOLIC DISEASES WITH FUSED BICYCLIC PYRAZOLES” (Belite Bio, Inc, priority 2017, published 2022)
# “And” between values parts separate entries of the source, which are not always exact repeats. Equal entries are not always repeated.
# Key:
# [1] = Compound 1 single dose rat PK study; type: in vivo, male Sprague Dawley rats; conditions: for Vd: read-out: Vss
# Description: A pharmacokinetic study of Compound 1 following a single intravenous or oral dose administration to male Sprague Dawley rats was conducted, the results of which are found in Table 3 and FIGS. 9-14.
# [2] = Compound 1 single dose mouse PK study; type: in vivo, male CD-1 mice
# Description: A pharmacokinetic study of Compound 1 following a single intravenous or oral dose administration to male CD-1 mice was conducted, the results of which are found in Table 4 and FIGS. 15-20.
# [3] = Compound 1 single dose non-human primate PK study; type: in vivo, Cynomolgus Macaques; conditions: NHP; for Vd: read-out: Vss
# Description: A pharmacokinetic study of Compound 1 following a single intravenous or oral dose administration to non-human primates (Cynomolgus Macaques) was conducted, the results of which are found in Table 2 and FIGS. 1-8.
# [4] = tested on: Subjects with NAFLD or NASH; experiment: Treatment of NAFLD and NASH in humans; type: in vivo, human; conditions: 50 or 100 mg/day for 6 months
# Description: Subjects with NAFLD or NASH are treated with doses of either 50 or 100 mg/day of compound 1 or 2 for 6 months. Subjects are permitted their usual other medications (e.g. antidiabetic medications such as metformin or […]) but not glitazones, PPAR agonists, OCA, or similar medications. The subjects are assessed before the study, and at intervals during the study, such as every 4 weeks during the study and 4 weeks after the last dose of compound 1 or 2, for safety and pharmacodynamic evaluations.
# MRIs of the subjects' livers are taken every 4 weeks during the study and 4 weeks after completion of compound 1 or 2 dosing, to determine hepatic fat; and liver biopsies are taken before the study (to establish the diagnosis) and 4 weeks after completion of compound 1 or 2 dosing. At each visit, after a 12-hour fast, blood is drawn and urine collected; and a standard metabolic panel, complete blood count, and standard urinalysis are performed. Blood is analyzed for total cholesterol, HDL-C, LDL-C, VLDL-C, TGs, apoB, and liver transaminases. The subjects also maintain health diaries, which are reviewed at each visit.
# [5] = male, Sprague Dawley, plasma, iv, 2 mg/kg, single iv dose 2 mg/kg, Mean of the 3 rats
# [6] = male, Sprague Dawley, plasma, iv, 2 mg/kg, single iv dose 2 mg/kg, individual rats
# [7] = male, Sprague Dawley, plasma, po, 5 mg/kg, single po dose 5 mg/kg, Mean of the 3 rats
# [8] = male, Sprague Dawley, plasma, po, 5 mg/kg, single po dose 5 mg/kg, individual rats
# [9] = single iv dose 2 mg/kg, individual rats, 2 mg/kg
# [10] = single po dose 5 mg/kg, individual rats, 5 mg/kg
# [11] = male, CD-1, plasma, single iv dose 2 mg/kg
# [12] = male, CD-1, plasma, single po dose 5 mg/kg
# [13] = single iv dose 1 mg/kg, individual animals, 1 mg/kg
# [14] = single po dose 5 mg/kg, individual animals, 5 mg/kg
# [15] = cynomolgus monkey, plasma, iv, 1 mg/kg, single iv dose 1 mg/kg, Mean of the 3 animals
# [16] = cynomolgus monkey, plasma, iv, 1 mg/kg, single iv dose 1 mg/kg, individual animals
# [17] = cynomolgus monkey, plasma, po, 5 mg/kg, single po dose 5 mg/kg, Mean of the 3 animals
# [18] = cynomolgus monkey, plasma, po, 5 mg/kg, single po dose 5 mg/kg, individual animals
structure (smiles),measurement,setting,value
"CC(=O)N1CCc2c(C(=O)N3CCC(c4ccc(F)c(F)c4C(F)(F)F)CC3)n[nH]c2C1 [Compound 1, 1-(3-(4-(3,4-difluoro-2-(trifluoromethyl)phenyl)piperidine-1-carbonyl)-1,4,5,7-tetrahydro-6H-pyrazolo[3,4-c]pyridin-6-yl)ethan-1-one]",AUC(0-inf),[1]; [5],3970 ng·h/mL
same,AUC(0-t),[1]; [5],3950 ng·h/mL
same,MRT inf,[1]; [5],3.3 h
same,MRT last,[1]; [5],3 h
same,clearance,[1]; [5],8.68 mL/min/kg
same,Tmax,"[1]; male, Sprague Dawley, plasma, iv, 2 mg/kg, single iv dose 2 mg/kg, Mean of the 3 rats, first plasma collection time listed as Tmax",4.8 min
same,Cmax,"[1]; male, Sprague Dawley, plasma, iv, 2 mg/kg, single iv dose 2 mg/kg, Mean of the 3 rats, read-out: Cmax",1870 ng/mL
same,Vd,[1]; [5],1.68 L/kg
same,half-life,"[1]; male, Sprague Dawley, plasma, iv, 2 mg/kg, single iv dose 2 mg/kg, Mean of the 3 rats, read-out: t1/2 (converted)",510 min
same,AUC(0-inf),[1]; [6],3610 ng·h/mL
same,AUC(0-t),[1]; [6],3600 ng·h/mL
same,MRT inf,[1]; [6],3 h
same,MRT last,[1]; [6],2.8 h
same,clearance,[1]; [6],9.23 mL/min/kg
same,Tmax,"[1]; male, Sprague Dawley, plasma, iv, 2 mg/kg, single iv dose 2 mg/kg, individual rats, first plasma collection time listed as Tmax",4.8 min
same,Cmax,"[1]; male, Sprague Dawley, plasma, iv, 2 mg/kg, single iv dose 2 mg/kg, individual rats, read-out: Cmax",1670 ng/mL
same,Vd,[1]; [6],1.69 L/kg
same,half-life,"[1]; male, Sprague Dawley, plasma, iv, 2 mg/kg, single iv dose 2 mg/kg, individual rats, read-out: t1/2 (converted)",516 min
same,AUC(0-inf),[1]; [7],2680 ng·h/mL
same,AUC(0-t),[1]; [7],2640 ng·h/mL
same,MRT inf,[1]; [7],9.9 h
same,MRT last,[1]; [7],9 h
same,Tmax,[1]; [7],85.2 min
same,Cmax,"[1]; male, Sprague Dawley, plasma, po, 5 mg/kg, single po dose 5 mg/kg, Mean of the 3 rats, read-out: Cmax",390 ng/mL
same,AUC(0-inf),[1]; [8],3210 ng·h/mL
same,AUC(0-t),[1]; [8],3170 ng·h/mL
same,MRT inf,[1]; [8],8.7 h
same,MRT last,[1]; [8],8 h
same,Cmax,"[1]; male, Sprague Dawley, plasma, po, 5 mg/kg, single po dose 5 mg/kg, individual rats, read-out: Cmax",456 ng/mL
same,half-life,"[1]; male, Sprague Dawley, plasma, po, 5 mg/kg, single po dose 5 mg/kg, individual rats, read-out: t1/2 (converted)",492 min
same,half-life,"[1]; male, Sprague Dawley, plasma, po, 5 mg/kg, t1/2, rat, single po dose 5 mg/kg, Mean of the 3 rats, heading: t1/2",456 min
same,AUCLAST,[1]; [9],5020 ng·h/mL and 3244 ng·h/mL
same,AUCinf,[1]; [9],5055 ng·h/mL and 3256 ng·h/mL
same,Cl,[1]; [9],396 mL/h/kg and 614 mL/h/kg
same,Cmax,[1]; [9],2400 ng/mL and 1536 ng/mL
same,MRTinf,[1]; [9],3.7 h and 3.1 h
same,MRTlast,[1]; [9],3.2 h and 2.9 h
same,t1/2,[1]; [9],11.0 h and 6.0 h
same,F,"[1]; single po dose 5 mg/kg, Mean of the 3 rats",27.0%
same,AUCLAST,[1]; [10],2683 ng·h/mL and 2069 ng·h/mL
same,AUCinf,[1]; [10],2698 ng·h/mL and 2138 ng·h/mL
same,Cmax,[1]; [10],274 ng/mL and 440 ng/mL
same,F,[1]; [10],32.3% and 27.2% and 21.5%
same,MRTinf,[1]; [10],8.2 h and 12.8 h
same,MRTlast,[1]; [10],11.2 h
same,t1/2,[1]; [10],6.2 h and 8.5 h
same,AUC(0-inf),[2]; [11],2460 ng·h/mL
same,AUC(0-t),[2]; [11],2400 ng·h/mL
same,MRT inf,[2]; [11],2.5 h
same,MRT last,[2]; [11],2.2 h
same,clearance,[2]; [11],13.5 mL/min/kg
same,half-life,[2]; [11],126 min
same,Cmax,"[2]; male, CD-1, plasma, single iv dose 2 mg/kg, maximum observed concentration at first time point",1460 ng/mL
same,Vd,"[2]; male, CD-1, plasma, single iv dose 2 mg/kg, read-out: Vss",2.02 L/kg
same,AUC(0-inf),[2]; [12],1810 ng·h/mL
same,AUC(0-t),[2]; [12],1800 ng·h/mL
same,Cmax,[2]; [12],278 ng/mL
same,MRT inf,[2]; [12],5 h
same,MRT last,[2]; [12],4.9 h
same,Tmax,[2]; [12],15 min
same,half-life,[2]; [12],174 min
same,Tmax,"[2]; male, CD-1, single iv dose 2 mg/kg, first plasma collection time",4.8 min
same,F,[2]; single po dose 5 mg/kg,29.4%
same,AUC inf,[3]; [13],5217 hr.ng/m1 and 3761 hr.ng/m1
same,AUCLAST,[3]; [13],5165 ng·h/mL and 3731 ng·h/mL
same,Cl,[3]; [13],192 mL/h/kg and 266 mL/h/kg
same,Cmax,[3]; [13],968 ng/mL and 704 ng/mL
same,MRT last,[3]; [13],6.8 h and 6.7 h
same,MRTinf,[3]; [13],7.3 h and 7.1 h
same,Vss,[3]; [13],1399 mL/kg and 1886 mL/kg
same,t1/2,[3]; [13],7.8 h and 7.4 h
same,F,"[3]; single po dose 5 mg/kg, Mean of the 3 animals",18.7%
same,AUC inf,[3]; [14],3601 hr.ng/m1 and 3918 hr.ng/m1
same,AUCLAST,[3]; [14],3525 ng·h/mL and 3852 ng·h/mL
same,Cmax,[3]; [14],363 ng/mL and 369 ng/mL
same,F,[3]; [14],21.6% and 16.5%
same,MRT last,[3]; [14],10.0 h and 10.3 h
same,MRTinf,[3]; [14],11.1 h
same,Tmax,[3]; [14],2 h
same,t1/2,[3]; [14],8.7 h and 8.1 h
same,AUC(0-inf),[3]; [15],4370 ng·h/mL
same,AUC(0-t),[3]; [15],4340 ng·h/mL
same,MRT inf,[3]; [15],6.9 h
same,clearance,[3]; [15],3.88 mL/min/kg
same,half-life,[3]; [15],462 min
same,Tmax,"[3]; cynomolgus monkey, plasma, iv, 1 mg/kg, single iv dose 1 mg/kg, Mean of the 3 animals, first plasma collection time listed as Tmax, read-out: Tmax",0.27 h
same,Cmax,"[3]; cynomolgus monkey, plasma, iv, 1 mg/kg, single iv dose 1 mg/kg, Mean of the 3 animals, read-out: Cmax",881 ng/mL
same,MRT last,"[3]; cynomolgus monkey, plasma, iv, 1 mg/kg, single iv dose 1 mg/kg, Mean of the 3 animals, read-out: MRT last",6.4 h
same,Vd,[3]; [15],1.6 L/kg
same,AUC(0-inf),[3]; [16],4140 ng·h/mL
same,AUC(0-t),[3]; [16],4110 ng·h/mL
same,MRT inf,[3]; [16],6.3 h
same,clearance,[3]; [16],4.02 mL/min/kg
same,half-life,[3]; [16],468 min
same,Cmax,"[3]; cynomolgus monkey, plasma, iv, 1 mg/kg, single iv dose 1 mg/kg, individual animals, read-out: Cmax",970 ng/mL
same,MRT last,"[3]; cynomolgus monkey, plasma, iv, 1 mg/kg, single iv dose 1 mg/kg, individual animals, read-out: MRT last",5.9 h
same,Vd,[3]; [16],1.52 L/kg
same,AUC(0-inf),[3]; [17],4080 ng·h/mL
same,AUC(0-t),[3]; [17],3990 ng·h/mL
same,MRT inf,[3]; [17],11.3 h
same,half-life,[3]; [17],510 min
same,Cmax,"[3]; cynomolgus monkey, plasma, po, 5 mg/kg, single po dose 5 mg/kg, Mean of the 3 animals, read-out: Cmax",406 ng/mL
same,MRT last,"[3]; cynomolgus monkey, plasma, po, 5 mg/kg, single po dose 5 mg/kg, Mean of the 3 animals, read-out: MRT last",10.2 h
same,Tmax,"[3]; cynomolgus monkey, plasma, po, 5 mg/kg, single po dose 5 mg/kg, Mean of the 3 animals, read-out: Tmax",1.67 h
same,AUC(0-inf),[3]; [18],4720 ng·h/mL
same,AUC(0-t),[3]; [18],4580 ng·h/mL
same,MRT inf,[3]; [18],11.7 h
same,half-life,[3]; [18],528 min
same,Cmax,"[3]; cynomolgus monkey, plasma, po, 5 mg/kg, single po dose 5 mg/kg, individual animals, read-out: Cmax",485 ng/mL
same,MRT last,"[3]; cynomolgus monkey, plasma, po, 5 mg/kg, single po dose 5 mg/kg, individual animals, read-out: MRT last",10.2 h
same,Tmax,"[3]; cynomolgus monkey, plasma, po, 5 mg/kg, single po dose 5 mg/kg, individual animals, read-out: Tmax",1 h
same,"improvement in their disease, as manifested by MRI and liver biopsy",[4],dose-related improvement
